The values that follow are results of earlier work, collected in PubChem BioAssay AID1259409 (Chemical Carcinogenesis Research Information System (CCRIS), 2018).

This data set deals with rodent chemically induced tumor inhibition, incidence and multiplicity. Put plainly: CCRIS tumor inhibitor studies. Particulars: Promoter: NONE USED.

`C[C@]12CC[C@H](O)CC1=CC[C@@H]1[C@@H]2CC[C@]2(C)C(=O)CC[C@@H]12`: the “tumour outcome (control, treated, inhibition, significance)” value reads like this: (Carcinogen: 1,2-DIMETHYLHYDRAZINE, 540-73-8, Dose [Inhibitor]: 0.6% IN DIET BEGINNING 2 WK PRIOR TO 1ST CARCINOGEN DOSE FOR DURATION OF EXPERIMENT (STUDY DURATION: 42 WK), Route [Inhibitor]: ORAL, Species: MOUSE, Strain/Sex: BALB/C/FEMALE, Target Tissue: Type of Lesion: ANUS: SQUAMOUS CELL CARCINOMA, FIBROSARCOMA, Dose [Carcinogen]: 21 MG/KG 1/WK FOR 20 WK) 38%, 50%, -32%, not calculated; (Carcinogen: 1,2-DIMETHYLHYDRAZINE, 540-73-8, Dose [Inhibitor]: 0.6% IN DIET BEGINNING 2 WK PRIOR TO 1ST CARCINOGEN DOSE FOR DURATION OF EXPERIMENT (STUDY DURATION: 42 WK), Route [Inhibitor]: ORAL, Species: MOUSE, Strain/Sex: BALB/FEMALE, Target Tissue: Type of Lesion: ANUS: SQUAMOUS CELL CARCINOMA, FIBROSARCOMA, Dose [Carcinogen]: 21 MG/KG 1/WK FOR 20 WK) 26/151 (17%), 0/141 (0%), 100%, p<0.001; (Carcinogen: 7,12-DIMETHYLBENZ[A]ANTHRACENE, 57-97-6, Dose [Inhibitor]: 0.6% IN DIET BEGINNING 9 D POST CARCINOGEN DOSE (STUDY DURATION: 14 WK AFTER AGENT TREATMENT), Route [Inhibitor]: ORAL, Species: MOUSE, Strain/Sex: STRAIN-A/FEMALE, Target Tissue: Type of Lesion: LUNG: TUMOR, Dose [Carcinogen]: 0.5 MG IN 0.2 ML SESAME OIL ONCE) 28/28 (100%), 20/23 (87%), 13%, not calculated; (Carcinogen: 7,12-DIMETHYLBENZ[A]ANTHRACENE, 57-97-6, Dose [Inhibitor]: 100 UG IN 0.2 ML ACETONE 1 HR PRIOR TO EACH CARCINOGEN DOSE (STUDY DURATION: 290 D), Route [Inhibitor]: DERMAL, Species: MOUSE, Strain/Sex: CD-1/FEMALE, Target Tissue: Type of Lesion: SKIN: CARCINOMA, Dose [Carcinogen]: 200 NMOL AT 6-7 WK OF AGE THEN 100 NMOL 1/WK 2 WK LATER) 14/28 (50%), 5/26 (19%), 62%, p<0.001; (Carcinogen: 7,12-DIMETHYLBENZ[A]ANTHRACENE, 57-97-6, Dose [Inhibitor]: 400 UG IN 0.2 ML ACETONE 1 HR PRIOR TO EACH CARCINOGEN DOSE (STUDY DURATION: 290 D), Route [Inhibitor]: DERMAL, Species: MOUSE, Strain/Sex: CD-1/FEMALE, Target Tissue: Type of Lesion: SKIN: CARCINOMA, Dose [Carcinogen]: 200 NMOL AT 6-7 WK OF AGE THEN 100 NMOL 1/WK 2 WK LATER) 14/28 (50%), 3/27 (11%), 78%, p<0.001; (Carcinogen: AZOXYMETHANE, 25843-45-2, Dose [Inhibitor]: 0, 0.5% DIET BEGINNING 1 DAY AFTER LAST CARCINOGEN DOSE AND CONTINUING FOR DURATION OF STUDY (STUDY DURATION: 18 WK), Route [Inhibitor]: ORAL, Species: RAT, Strain/Sex: F344/MALE, Target Tissue: Type of Lesion: COLON: TUMOR, Dose [Carcinogen]: 10 MG/KG 1/WK FOR 10 WK) 10/15 (67%), 7/15 (47%), 30%, not significant. Moreover, under “Carcinogen: AZOXYMETHANE, 25843-45-2, Dose [Inhibitor]: 0, 0.5% DIET BEGINNING 1 DAY AFTER LAST CARCINOGEN DOSE AND CONTINUING FOR DURATION OF STUDY (STUDY DURATION: 18 WK), Route [Inhibitor]: ORAL, Species: RAT, Strain/Sex: F344/MALE, Target Tissue: Type of Lesion: SMALL INTESTINE: TUMOR, Dose [Carcinogen]: 10 MG/KG 1/WK FOR 10 WK”, the “tumour outcome (control, treated, inhibition, significance)” value is on record as 10/15 (67%), 8/15 (53%), 21%, not significant.
